Read-outs that look alike come from different tables or passages of the source.
Key:
[1] = tested on: HCV genotype 1b replicon; assay: HCV replicon assay, genotype 1b replicon EC50; format: cell-based, Hepatitis C virus; settings: genotype 1b replicon, read-out: EC50 [gt-1b]
Summary of the method: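 Potency comes from a four-parameter fit of signal as percent of DMSO control. Replicon-bearing cells were treated 24-48 hours with a compound dilution series in absence of G418, and replicon RNA was quantified normalized to cyclophilin A RNA, or luciferase read.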

[2] = target: HCV NS3/4A protease genotype 1b (Hepatitis C virus genotype 1b, UniProt P26663); assay: HCV NS3/4A protease time-resolved fluorescence (TRF) assay, Ki against genotype 1b; format: biochemical; settings: IC50 [gt-1b] (nM), NS3/4A genotype 1b, enzyme 0.2 nM
Summary of the method: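 NS3/4A enzyme was preincubated 30 min with inhibitor in 50 mM HEPES pH 7.5, 150 mM NaCl, 15% glycerol, 0.15% Triton X-100, 10 mM DTT, 0.1% PEG 8000; 25 nM europium TRF peptide substrate added, 2.5 h at room temperature. Enzyme: 0.2 nM (1b), 0.4 nM (A156T), 0.025 nM (3a). Ki from IC50 via Cheng-Prusoff.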

| SMILES | EC50 ([1]; Hepatitis C virus, K+ salt) [nM] | IC50 ([2]; K+ salt) [nM] | EC50 ([1]; Hepatitis C virus) [nM] | IC50 [2] [nM] | EC50 [1] [nM] |
| --- | --- | --- | --- | --- | --- |
| Cc1nc2cc(Cl)ccc2c2c1O[C@]1(CC2)C[C@H]2C(=O)N[C@]3(C(=O)NS(=O)(=O)C4(C)CC4)C[C@H]3/C=C\CCCCC[C@H](NC(=O)OCC(C)C)C(=O)N2C1 [Example 234, 2-methylpropyl [(2R,6S,12Z,13aS,14aR,16aS)-8′-chloro-5′-methyl-14a-{[(1-methylcyclopropyl)sulfonyl]carbamoyl}-5,16-dioxo-1,1′,2′,5,6,7,8,9,10,11,13a,14,14a,15,16,16a-hexadecahydrospiro[cyclopropa[e]pyrrolo[1,2-a][1,4]diazacyclopentadecine-2,3′-pyrano[2,3-c]quinolin]-6-yl]carbamate] | 4.48 | 0.025 |  |  |  |
| Cc1nc2cc(Cl)ccc2c2c1O[C@]1(CC2)C[C@H]2C(=O)N[C@]3(C(=O)NS(=O)(=O)C4(C)CC4)C[C@H]3/C=C\CCCCC[C@H](NC(=O)OCC(C)(C)C)C(=O)N2C1 [Example 235, 2,2-dimethylpropyl [(2R,6S,12Z,13aS,14aR,16aS)-8′-chloro-5′-methyl-14a-{[(1-methylcyclopropyl)sulfonyl]carbamoyl}-5,16-dioxo-1,1′,2′,5,6,7,8,9,10,11,13a,14,14a,15,16,16a-hexadecahydrospiro[cyclopropa[e]pyrrolo[1,2-a][1,4]diazacyclopentadecine-2,3′-pyrano[2,3-c]quinolin]-6-yl]carbamate] | 4.31 | 0.027 |  |  |  |
| Cc1nc2cc(Cl)ccc2c2c1O[C@]1(CC2)C[C@H]2C(=O)N[C@]3(C(=O)NS(=O)(=O)C4(C)CC4)C[C@H]3/C=C\CCCCC[C@H](NC(=O)OC3(C)CC3)C(=O)N2C1 [Example 236, 1-methylcyclopropyl [(2R,6S,12Z,13aS,14aR,16aS)-8′-chloro-5′-methyl-14a-{[(1-methylcyclopropyl)sulfonyl]carbamoyl}-5,16-dioxo-1,1′,2′,5,6,7,8,9,10,11,13a,14,14a,15,16,16a-hexadecahydrospiro[cyclopropa[e]pyrrolo[1,2-a][1,4]diazacyclopentadecine-2,3′-pyrano[2,3-c]quinolin]-6-yl]carbamate] | 7.24 | 0.056 |  |  |  |
| Cc1nc2cc(Cl)ccc2c2c1O[C@]1(CC2)C[C@H]2C(=O)N[C@]3(C(=O)NS(=O)(=O)C4(C)CC4)C[C@H]3/C=C\CCCCC[C@H](NC(=O)OC(C)C)C(=O)N2C1 [Example 237, propan-2-yl [(2R,6S,12Z,13aS,14aR,16aS)-8′-chloro-5′-methyl-14a-{[(1-methylcyclopropyl)sulfonyl]carbamoyl}-5,16-dioxo-1,1′,2′,5,6,7,8,9,10,11,13a,14,14a,15,16,16a-hexadecahydrospiro[cyclopropa[e]pyrrolo[1,2-a][1,4]diazacyclopentadecine-2,3′-pyrano[2,3-c]quinolin]-6-yl]carbamate] |  |  | 5.72 | 0.04 |  |
| Cc1nc2cc(Cl)ccc2c2c1O[C@]1(CC2)C[C@H]2C(=O)N[C@]3(C(=O)NS(=O)(=O)C4(C)CC4)C[C@H]3/C=C\CCCCC[C@H](NC(=O)OC3CCCC3)C(=O)N2C1 [Example 238, cyclopentyl [(2R,6S,12Z,13aS,14aR,16aS)-8′-chloro-5′-methyl-14a-{[(1-methylcyclopropyl)sulfonyl]carbamoyl}-5,16-dioxo-1,1′,2′,5,6,7,8,9,10,11,13a,14,14a,15,16,16a-hexadecahydrospiro[cyclopropa[e]pyrrolo[1,2-a][1,4]diazacyclopentadecine-2,3′-pyrano[2,3-c]quinolin]-6-yl]carbamate] |  |  | 7.72 | 0.02 |  |
| Cc1nc2cc(Cl)ccc2c2c1O[C@]1(CC2)C[C@H]2C(=O)N[C@]3(C(=O)NS(=O)(=O)C4(C)CC4)C[C@H]3/C=C\CCCCC[C@H](NC(=O)OC3CCC3)C(=O)N2C1 [Example 239, cyclobutyl [(2R,6S,12Z,13aS,14aR,16aS)-8′-chloro-5′-methyl-14a-{[(1-methylcyclopropyl)sulfonyl]carbamoyl}-5,16-dioxo-1,1′,2′,5,6,7,8,9,10,11,13a,14,14a,15,16,16a-hexadecahydrospiro[cyclopropa[e]pyrrolo[1,2-a][1,4]diazacyclopentadecine-2,3′-pyrano[2,3-c]quinolin]-6-yl]carbamate] |  |  | 5.16 | 0.068 |  |
| Cc1nc2ccccc2c2c1O[C@]1(CC2)C[C@H]2C(=O)N[C@]3(C(=O)NS(=O)(=O)C4(C)CC4)C[C@H]3/C=C\CCCCC[C@H](NC(=O)OC(C)C(F)(F)F)C(=O)N2C1 (stereo partly drawn) [Example 240, 1,1,1-trifluoropropan-2-yl [(2R,6S,12Z,13aS,14aR,16aS)-5′-methyl-14a-{[(1-methylcyclopropyl)sulfonyl]carbamoyl}-5,16-dioxo-1,1′,2′,5,6,7,8,9,10,11,13a,14,14a,15,16,16a-hexadecahydrospiro[cyclopropa[e]pyrrolo[1,2-a][1,4]diazacyclopentadecine-2,3′-pyrano[2,3-c]quinolin]-6-yl]carbamate] |  |  |  | 0.01 | 2.65 |
| Cc1nc2ccccc2c2c1O[C@]1(CC2)C[C@H]2C(=O)N[C@]3(C(=O)NS(=O)(=O)C4(C)CC4)C[C@H]3/C=C\CCCCC[C@H](NC(=O)OC(C)C(F)(F)F)C(=O)N2C1 (stereo partly drawn) [Example 241, 1,1,1-trifluoropropan-2-yl [(2R,6S,12Z,13aS,14aR,16aS)-5′-methyl-14a-{[(1-methylcyclopropyl)sulfonyl]carbamoyl}-5,16-dioxo-1,1′,2′,5,6,7,8,9,10,11,13a,14,14a,15,16,16a-hexadecahydrospiro[cyclopropa[e]pyrrolo[1,2-a][1,4]diazacyclopentadecine-2,3′-pyrano[2,3-c]quinolin]-6-yl]carbamate] |  |  |  | 0.012 | 2.9 |
| COCC(C)(C)OC(=O)N[C@H]1CCCCC/C=C\[C@@H]2C[C@@]2(C(=O)NS(=O)(=O)C2(C)CC2)NC(=O)[C@@H]2C[C@@]3(CN2C1=O)CC(F)(F)c1c(c(C(C)C)nc2ccc(OC)cc12)O3 [Example 242, 1-methoxy-2-methylpropan-2-yl [(2S,6S,12Z,13aS,14aR,16aS)-1′,1′-difluoro-9′-methoxy-14a-{[(1-methylcyclopropyl)sulfonyl]carbamoyl}-5,16-dioxo-5′-(propan-2-yl)-1,1′,2′,5,6,7,8,9,10,11,13a,14,14a,15,16,16a-hexadecahydrospiro[cyclopropa[e]pyrrolo[1,2-a][1,4]diazacyclopentadecine-2,3′-pyrano[2,3-c]quinolin]-6-yl]carbamate] |  |  | 3.38 | 0.022 |  |
| COc1ccc2nc(C(C)C)c3c(c2c1)CC[C@]1(C[C@H]2C(=O)N[C@]4(C(=O)NS(=O)(=O)C5(C)CC5)C[C@H]4/C=C\CCCCC[C@H](NC(=O)OC(C)(C)CCS(C)(=O)=O)C(=O)N2C1)O3 [Example 243, 2-methyl-4-(methylsulfonyl)butan-2-yl [(2R,6S,12Z,13aS,14aR,16aS)-9′-methoxy-14a-{[(1-methylcyclopropyl)sulfonyl]carbamoyl}-5,16-dioxo-5′-(propan-2-yl)-1,1′,2′,5,6,7,8,9,10,11,13a,14,14a,15,16,16a-hexadecahydrospiro[cyclopropa[e]pyrrolo[1,2-a][1,4]diazacyclopentadecine-2,3′-pyrano[2,3-c]quinolin]-6-yl]carbamate] | 43 | 0.012 |  |  |  |
| COCCC(C)(C)OC(=O)N[C@H]1CCCCC/C=C\[C@@H]2C[C@@]2(C(=O)NS(=O)(=O)C2(C)CC2)NC(=O)[C@@H]2C[C@@]3(CN2C1=O)CC(F)(F)c1c(c(C(C)C)nc2ccc(OC)cc12)O3 [Example 244, 4-methoxy-2-methylbutan-2-yl [(2S,6S,12Z,13aS,14aR,16aS)-1′,1′-difluoro-9′-methoxy-14a-{[(1-methylcyclopropyl)sulfonyl]carbamoyl}-5,16-dioxo-5′-(propan-2-yl)-1,1′,2′,5,6,7,8,9,10,11,13a,14,14a,15,16,16a-hexadecahydrospiro[cyclopropa[e]pyrrolo[1,2-a][1,4]diazacyclopentadecine-2,3′-pyrano[2,3-c]quinolin]-6-yl]carbamate] |  |  | 2.89 | 0.008 |  |
| COc1ccc2nc(C(C)C)c3c(c2c1)C(F)(F)C[C@]1(C[C@H]2C(=O)N[C@]4(C(=O)NS(=O)(=O)C5(C)CC5)C[C@H]4/C=C\CCCCC[C@H](NC(=O)OC(C)(C)CCS(C)(=O)=O)C(=O)N2C1)O3 [Example 245, 2-methyl-4-(methylsulfonyl)butan-2-yl [(2S,6S,12Z,13aS,14aR,16aS)-1′,1′-difluoro-9′-methoxy-14a-{[(1-methylcyclopropyl)sulfonyl]carbamoyl}-5,16-dioxo-5′-(propan-2-yl)-1,1′,2′,5,6,7,8,9,10,11,13a,14,14a,15,16,16a-hexadecahydrospiro[cyclopropa[e]pyrrolo[1,2-a][1,4]diazacyclopentadecine-2,3′-pyrano[2,3-c]quinolin]-6-yl]carbamate] | 13.4 | 0.025 |  |  |  |
| Cc1nc2ccc(OC(F)(F)F)cc2c2c1O[C@]1(CC2)C[C@H]2C(=O)N[C@]3(C(=O)NS(=O)(=O)C4(C)CC4)C[C@H]3/C=C\CCCCC[C@H](NC(=O)N3CCCC3)C(=O)N2C1 [Example 246, (2R,6S,12Z,13aS,14aR,16aS)-5′-methyl-N-[(1-methylcyclopropyl)sulfonyl]-5,16-dioxo-6-[(pyrrolidin-1-ylcarbonyl)amino]-9′-(trifluoromethoxy)-1,1′,2′,6,7,8,9,10,11,13a,14,15,16,16a-tetradecahydrospiro[cyclopropa[e]pyrrolo[1,2-a][1,4]diazacyclopentadecine-2,3′-pyrano[2,3-c]quinoline]-14a(5H)-carboxamide] |  |  | 17.4 | 0.004 |  |

Source: patent publication US8987195B2 (priority 2012, dated 2015)
